Results published in article PMC11044151, “Development of Half-Sandwich Ru, Os, Rh, and Ir Complexes Bearing the Pyridine-2-ylmethanimine Bidentate Ligand Derived from 7-Chloroquinazolin-4(3H)-one with Enhanced Antiproliferative Activity” (ACS Omega, 2024).
Read-outs that look alike come from different tables or passages of the source.

Assays:
KSP = target: T1, KSP (Homo sapiens, UniProt P52732); assay: Kinesin ATPase inhibition (ATP hydrolysis) end-point assay; format: biochemical; details: 100 nM stated for ispinesib and (R)-1; concentration not restated for the complexes
T1 construct: purchased Cytoskeleton, Inc
T1 sequence (P52732 1-368 limits assumed): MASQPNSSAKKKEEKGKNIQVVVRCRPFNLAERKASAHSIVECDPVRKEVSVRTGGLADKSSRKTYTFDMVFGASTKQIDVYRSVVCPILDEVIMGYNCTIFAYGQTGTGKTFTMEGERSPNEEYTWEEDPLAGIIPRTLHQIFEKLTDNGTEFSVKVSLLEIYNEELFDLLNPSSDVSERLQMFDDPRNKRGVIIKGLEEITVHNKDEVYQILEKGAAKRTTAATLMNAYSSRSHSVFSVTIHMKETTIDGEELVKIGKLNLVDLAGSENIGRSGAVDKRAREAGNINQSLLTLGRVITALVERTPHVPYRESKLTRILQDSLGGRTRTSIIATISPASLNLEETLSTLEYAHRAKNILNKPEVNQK
Method: The mechanism of the anticancer activity of ispinesib is related to the inhibition of the activity of the KSP. Thus, we studied the synthesized compounds’ ability to inhibit KSP activity using the adenosine 5′-triphosphate (ATP) hydrolysis assay.
The potential kinesin modulatory activity of tested compounds was performed using a Kinesin ATPase end-point biochem kit (Cytoskeleton, Inc.). […] The experiment was performed according to the manufacturer’s instructions. One μg of tested kinesin (KSP) was used per reaction. Phosphate release was measured at the absorbance 650 nm using an EnVision multilabel plate reader (PerkinElmer).

SW620M = assay: Neutral red uptake antiproliferative assay, MDR line SW620M; format: cell-based, human; details: for IC50: exposure time 72 h, n = 3, ABCC1-overexpressing MDR line
Source text: (§1) Next, we evaluated the cytotoxicity of the synthesized complexes toward the panel of six multidrug-resistant (MDR) cell lines derived from SW620 and characterized by the overexpression of various ABC proteins, namely, ABCG2 (SW620C and SW620Mito), ABCC1 (SW620M and SW620E), and ABCB1 (SW620D, SW620E, and SW620V) (Table 3, Figures S29 and S32). […] The activity of the complexes derived from the ligand (S)-2 is also considerably higher than that of the compounds containing the ligand (R)-2. The cytotoxicity of both rhodium 4c and iridium 4d complexes is higher than that of amine (S)-1. In the case of 4c, the increase in cytotoxicity is low, with the highest value of 3.7-fold for the SW620Mito line. […] Compound 4d also exerts a 2.1- and 2.6-fold higher cytotoxicity than […] against the SW620C and SW620D lines.
(§2) For this purpose, neutral red uptake assay was performed. […] The results were presented as a percentage of control.

[1] = tested on: human cancer cell lines (A549, Colo205, HCT116, HepG2, MCF7, SW620); assay: Neutral red uptake antiproliferative assay, panel of human cancer cell lines; format: cell-based; details: cell line not stated
Source text: (§3) To assess the impact of conjugating half-sandwich complexes with amines 1 via an imine-pyridine ligand on biological activity, we examined the antiproliferative potential of (R)- and (S)-1 and organometallic conjugates 3a–d and 4a–d in selected human cancer cell lines: alveolar basal epithelial cell adenocarcinoma (A549), colorectal adenocarcinomas (Colo205 and SW620), colorectal carcinoma (HCT116), hepatocellular carcinoma (HepG2), and breast adenocarcinoma (MCF7). The choice of cell lines was dictated by results of previously published clinical trials on ispinesib.[49],[50]
For this purpose, neutral red uptake assay was performed. 10^4 of cells were seeded per well of a 96-well plate and left overnight to allow cells to attach to the surface. Then, the cells were exposed to a desired concentration of tested compounds. Stock solutions were prepared in DMSO and were used immediately after preparation. The final concentration of DMSO was constant and nontoxic (0.1% v/v). After 70 h of culture, neutral red was added to the final concentration of 1 mM. After 2 h of incubation with the dye, the medium was aspirated and cells were washed with ice-cold PBS. […] The absorbance at 540 nm was measured using an EnVision multilabel plate reader (PerkinElmer). […] The IC90 and IC50 parameters were calculated using GraphPad Prism v9 software using the five-parameter nonlinear logistic regression model.

SW620 = assay: Neutral red uptake antiproliferative assay, SW620; format: cell-based, human; details: for IC50: exposure time 72 h, n = 3, 95% CI given
Source text: as §3
(§4) Cell lines used in this study were purchased from the American Type Culture Collection via LGC Standards. Human normal lung fibroblasts (MRC-5), alveolar basal epithelial cell adenocarcinoma (A549), colorectal adenocarcinoma (Colo205), hepatocellular carcinoma (HepG2), breast adenocarcinoma (MCF7), and colorectal adenocarcinoma (SW620) and its MDR variants[55] were cultured in standard conditions (37 °C, 5% CO2, 100% relative humidity) in high glucose DMEM medium supplemented with GlutaMax, HEPES (ThermoFisher Scientific) and 10% fetal bovine serum (EURx, Poland). All cell lines were tested for Mycoplasma contamination using a MycoProbe mycoplasma detection kit (R&D System).
(§5) For this purpose, neutral red uptake assay was performed. 10^4 of cells were seeded per well of a 96-well plate and left overnight to allow cells to attach to the surface. Then, the cells were exposed to a desired concentration of tested compounds. Stock solutions were prepared in DMSO and were used immediately after preparation. The final concentration of DMSO was constant and nontoxic (0.1% v/v). After 70 h of culture, neutral red was added to the final concentration of 1 mM. After 2 h of incubation with the dye, the medium was aspirated and cells were washed with ice-cold PBS. The dye was released using 100 μL of the solubilizer (1% acetic acid in 50% ethanol) on an orbital shaker (10 min). The absorbance at 540 nm was measured using an EnVision multilabel plate reader (PerkinElmer). […] The IC90 and IC50 parameters were calculated using GraphPad Prism v9 software using the five-parameter nonlinear logistic regression model.

SW620 cells = assay: Cell cycle distribution by flow cytometry, SW620; format: cell-based, human; details: concentration equal to IC75 of (S)-1 / (R)-1, mean ± SEM, n = 3; for Cell cycle fraction G1, 24 h / Cell cycle fraction G2/M, 24 h / Cell cycle fraction S, 24 h: SW620, 24 h; for Cell cycle fraction G1, 48 h / Cell cycle fraction G2/M, 48 h / Cell cycle fraction S, 48 h: SW620, 48 h
Method: Ispinesib leads to the formation of monopolar mitotic spindles and a blockade of chromosome segregation in cancer cells. Using flow cytometry, we assessed the cell cycle distribution in the SW620 and SW620E cells exposed to the studied compounds for 24 and 48 h. […] Both complexes, 3c and 3d, decrease the percentage of cells in the G1/G0 phase and increase the percentage in the S and G2/M phases. […] Furthermore, prolonged exposure to the compounds increases the percentage of cells in the G2/M phase, with the most intensive effect observed for 3c and 3d.
SW620 and SW620E cells lines (vulnerable and resistant variants, respectively) were seeded in 6-well plates at a density of 10^5 cells per well. […] After 24 h, the cells were trypsinized and fixed with ice-cold 70% v/v ethanol. The cells were stained with 75 μM propidium iodide with 50 Kunitz units of RNase A in PBS for 30 min at 37 °C. All samples were analyzed using a LSRII flow cytometer (Becton Dickinson) at a PE channel ([…]). Cell cycle phase distribution was determined using a built-in cell cycle module (Watson pragmatic algorithm) by FlowJo 7.6.1 software.

HCT116 = assay: cells; details: for IC50: read-out: IC50 HCT116
Source text: as §3, §5

A549 = assay: Neutral red uptake antiproliferative assay, A549; details: for IC50: read-out: IC50 A549
Source text: as §3, §4, §5

SW620E = assay: Neutral red uptake antiproliferative assay, MDR line SW620E; format: cell-based, human; details: for IC50: exposure time 72 h, n = 3, ABCC1- and ABCB1-overexpressing MDR line
Source text: as §1, §2

SW620C = assay: Neutral red uptake antiproliferative assay, MDR line SW620C; format: cell-based, human; details: for IC50: exposure time 72 h, n = 3, ABCG2-overexpressing MDR line
Source text: as §1, §2

SW620D = assay: Neutral red uptake antiproliferative assay, MDR line SW620D; format: cell-based, human; details: for IC50: exposure time 72 h, n = 3, ABCB1-overexpressing MDR line
Source text: as §1, §2

HepG2 = assay: cells; details: for IC50: read-out: IC50 HepG2
Source text: as §3, §4, §5

Colo205 = assay: cells; details: for IC50: read-out: IC50 Colo205
Source text: as §3, §4, §5

MCF7 = assay: cells; details: for IC50: read-out: IC50 MCF7
Source text: as §3, §4, §5

SW620Mito = assay: Neutral red uptake antiproliferative assay, MDR line SW620Mito; format: cell-based, human; details: for IC50: exposure time 72 h, n = 3, ABCG2-overexpressing MDR line
Source text: as §1, §2

SW620V = assay: Neutral red uptake antiproliferative assay, MDR line SW620V; format: cell-based, human; details: for IC50: exposure time 72 h, n = 3, ABCB1-overexpressing MDR line
Source text: as §1, §2

[2] = vs corresponding amine (R)-1 or (S)-1, 72 h
[3] = exposure time 72 h, n = 3, 95% CI given
[4] = compared with the amine of opposite configuration, (R)-1

Cc1ccc(C(=O)N(CCCN)[C@@H](c2nc3cc(Cl)ccc3c(=O)n2Cc2ccccc2)C(C)C)cc1 [ispinesib, reference compound]
KSP residual activity (KSP): 2.2%

CC(C)[C@H](N=Cc1ccccn1)c1nc2cc(Cl)ccc2c(=O)n1Cc1ccccc1.Cc1c(C)c(C)[c-](C)c1C.F[P-](F)(F)(F)(F)F.[Cl-].[Ir+3] [Compound 4d, [(Cp*)Ir((S)-2)Cl]PF6]
IC50 (SW620M): 387 nM | activity factor IC50(1)/IC50(3a–4d), SW620M (SW620M; [2]): (8.94) | higher cytotoxicity compared to (R)-1 [1]: 1.6 fold | higher cytotoxicity compared to (S)-1 [1]: 2.6 fold | IC50 (SW620): 139 nM | activity factor IC50(1)/IC50(3a–4d), SW620 (SW620; [2]): (20.65) | Cell cycle fraction G1, 24 h (SW620 cells): 51.7 ± 1.2% | Cell cycle fraction G2/M, 24 h (SW620 cells): 28.9 ± 0.4% | Cell cycle fraction S, 24 h (SW620 cells): 14.3 ± 0.2% | Cell cycle fraction G1, 48 h (SW620 cells): 44.1 ± 0.5% | Cell cycle fraction G2/M, 48 h (SW620 cells): 40.6 ± 1.3% | Cell cycle fraction S, 48 h (SW620 cells): 13.7 ± 0.4% | IC50 (HCT116; [3]): 222 nM | activity factor IC50(1)/IC50(3a–4d), HCT116 (HCT116; [2]): (36.31) | IC50 (A549; [3]): 764 nM | activity factor IC50(1)/IC50(3a–4d), A549 (A549; [2]): (9.23) | IC50 (SW620E): 663 nM | activity factor IC50(1)/IC50(3a–4d), SW620E (SW620E; [2]): (6.11) | higher cytotoxicity than (R)-1, SW620C (SW620C; [4]): 2.1 fold | IC50 (SW620C): 343 nM | activity factor IC50(1)/IC50(3a–4d), SW620C (SW620C; [2]): (9.71) | higher cytotoxicity than (R)-1, SW620D (SW620D; [4]): 2.6 fold | IC50 (SW620D): 425 nM | activity factor IC50(1)/IC50(3a–4d), SW620D (SW620D; [2]): (9.76) | IC50 (HepG2; [3]): 218 nM | activity factor IC50(1)/IC50(3a–4d), HepG2 (HepG2; [2]): (11.01) | IC50 (Colo205; [3]): 216 nM | activity factor IC50(1)/IC50(3a–4d), Colo205 (Colo205; [2]): (28.1) | IC50 (MCF7; [3]): 216 nM | activity factor IC50(1)/IC50(3a–4d), MCF7 (MCF7; [2]): (18.10) | IC50 (SW620Mito): 365 nM | activity factor IC50(1)/IC50(3a–4d), SW620Mito (SW620Mito; [2]): (10.71) | IC50 (SW620V): 411 nM | activity factor IC50(1)/IC50(3a–4d), SW620V (SW620V; [2]): (8.37)

CC(C)[C@@H](N)c1nc2cc(Cl)ccc2c(=O)n1Cc1ccccc1 [(R)-1, reference compound]
IC50 (SW620M; Homo sapiens): 241 nM | IC50 (SW620; Homo sapiens, SW-620): 96 nM | Cell cycle fraction G1, 24 h (SW620 cells): 45.4 ± 1.0% | Cell cycle fraction G2/M, 24 h (SW620 cells): 36.6 ± 2.2% | Cell cycle fraction S, 24 h (SW620 cells): 17.2 ± 1.3% | Cell cycle fraction G1, 48 h (SW620 cells): 36.2 ± 1.4% | Cell cycle fraction G2/M, 48 h (SW620 cells): 42.1 ± 0.4% | Cell cycle fraction S, 48 h (SW620 cells): 19.0 ± 0.6% | IC50 (HCT116; Homo sapiens, HCT-116, 72 h): 346 nM | KSP residual activity (KSP): about 35% | IC50 (A549; Homo sapiens, A549, 72 h): 2210 nM | IC50 (SW620E; Homo sapiens): 835 nM | IC50 (SW620C; Homo sapiens): 721 nM | IC50 (SW620D; Homo sapiens): 1120 nM | IC50 (HepG2; Homo sapiens, HepG2, 72 h): 566 nM | IC50 (Colo205; Homo sapiens, COLO 205, 72 h): 107 nM | IC50 (MCF7; Homo sapiens, MCF7, 72 h): 231 nM | IC50 (SW620Mito; Homo sapiens): 261 nM | IC50 (SW620V; Homo sapiens): 206 nM
